Assays:
[1] = molecular target: T1, PknB (Mycobacterium tuberculosis, UniProt P9WI81); experiment: biochemical; set-up: species or system M. tuberculosis; details: 3 nM PknB, 6 uM GarA, 3 μM ATP, 30 min, competitive tight-binding fit, several symbols in a cell = repeat determinations; for Ki: read-out: Ki Values
T1 construct: made in house

[2] = system: Mycobacterium tuberculosis H37Ra; experiment: Mycobacterium tuberculosis growth inhibition assay (microtiter dilution, resazurin reduction); type: cell-based; details: 7H9 broth, 9 days + 24 h resazurin, lowest concentration inhibiting resazurin reduction by >70%, several symbols in a cell = repeat determinations
Summary of the method: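 Resazurin-based microtiter dilution MIC: compounds in 7- or 11-step two-fold series with ~1×10^6 cells/mL H37Ra in 7H9/10% ADC, 9 days at 37 °C, then 24 h with dye. MIC is the lowest concentration giving >70% inhibition of resazurin reduction relative to DMSO controls, by 492/595 nm fluorescence.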

T1 sequence (P9WI81 whole entry): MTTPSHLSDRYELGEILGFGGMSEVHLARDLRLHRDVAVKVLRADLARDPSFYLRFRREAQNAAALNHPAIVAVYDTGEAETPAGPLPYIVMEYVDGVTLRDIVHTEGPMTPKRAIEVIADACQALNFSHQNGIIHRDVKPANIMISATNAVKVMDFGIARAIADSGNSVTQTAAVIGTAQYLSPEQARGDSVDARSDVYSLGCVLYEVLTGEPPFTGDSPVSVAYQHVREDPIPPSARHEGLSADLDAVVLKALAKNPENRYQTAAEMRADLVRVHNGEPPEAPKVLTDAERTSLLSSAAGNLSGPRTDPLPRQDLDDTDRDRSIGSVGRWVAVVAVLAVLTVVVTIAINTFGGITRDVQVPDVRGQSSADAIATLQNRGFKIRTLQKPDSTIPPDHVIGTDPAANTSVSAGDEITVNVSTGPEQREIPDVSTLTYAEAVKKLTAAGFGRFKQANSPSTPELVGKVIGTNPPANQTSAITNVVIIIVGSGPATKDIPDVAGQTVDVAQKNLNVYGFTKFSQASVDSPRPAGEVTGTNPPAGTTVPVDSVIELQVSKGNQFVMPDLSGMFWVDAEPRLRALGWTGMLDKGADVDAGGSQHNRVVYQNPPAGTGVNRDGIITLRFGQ

SMILES | Ki Values [1] | MIC values [2] | Ki [1]
C#Cc1cnc(-c2ccc([C@H](O)C(C)C)s2)nc1Nc1cc(C2CC2)n[nH]1 [Compound 214, 1-[5-[4-[(5-cyclopropyl-2H-pyrazol-3-yl)amino]-5-ethynyl-pyrimidin-2-yl]-2-thienyl]-2-methyl-propan-1-ol] | A**, A**, A* | B++ | 
C#Cc1cnc(-c2ccc([C@H](O)CCC)s2)nc1Nc1cc(C2CC2)n[nH]1 [Compound 215, 1-[5-[4-[(5-cyclopropyl-2H-pyrazol-3-yl)amino]-5-ethynyl-pyrimidin-2-yl]-2-thienyl]butan-1-ol] | A**, A**, A* | B++ | 
CC(C)(C)NS(=O)(=O)c1ccc(-c2ncc(C#CCO)c(Nc3cc(C4CC4)[nH]n3)n2)s1 [Compound 216, N-tert-butyl-5-(4-(5-cyclopropyl-1H-pyrazol-3-ylamino)-5-(3-hydroxyprop-1-ynyl)pyrimidin-2-yl)thiophene-2-sulfonamide] |  | B+ | 1000 to 2000 nM
O=[N+]([O-])c1ccc(-c2ncc(Cl)c(Nc3cc(C4CC4)[nH]n3)n2)o1 [Compound 222, 5-chloro-N-(5-cyclopropyl-1H-pyrazol-3-yl)-2-(5-nitrofuran-2-yl)pyrimidin-4-amine] |  | A+, A | 1 to 10 nM
C#Cc1cnc(-c2ccc(C(O)CCCO)s2)nc1Nc1cc(C2CC2)[nH]n1 (stereo not drawn) [Compound 223, 1-[5-[4-[(5-cyclopropyl-1H-pyrazol-3-yl)amino]-5-ethynyl-pyrimidin-2-yl]-2-thienyl]butane-1,4-diol] |  | B++ | 1 to 10 nM
Cc1cc(Nc2nc(-c3ccc(S(N)(=O)=O)s3)ncc2Cl)n[nH]1 [Compound 224, 5-[5-chloro-4-[(5-methyl-1H-pyrazol-3-yl)amino]-pyrimidin-2-yl]thiophene-2-sulfonamide] |  | B++ | 1 to 10 nM
CC(C)c1cc(Nc2nc(-c3ccc(S(N)(=O)=O)s3)ncc2Cl)n[nH]1 [Compound 225, 5-[5-chloro-4-[(5-isopropyl-1H-pyrazol-3-yl)amino]-pyrimidin-2-yl]thiophene-2-sulfonamide] |  | B++ | 1 to 10 nM
CC(C#N)c1ccc(-c2ncc(Cl)c(Nc3cc(C4CC4)[nH]n3)n2)s1 (stereo not drawn) [Compound 226, 2-[5-[5-chloro-4-[(5-cyclopropyl-1H-pyrazol-3-yl)amino]-pyrimidin-2-yl]-2-thienyl]propanenitrile] |  | B++ | 10 to 50 nM
C#Cc1cnc(-c2ccc(C(C)C#N)s2)nc1Nc1cc(C2CC2)[nH]n1 (stereo not drawn) [Compound 227, 2-[5-[4-[(5-cyclopropyl-1H-pyrazol-3-yl)amino]-5-ethynyl-pyrimidin-2-yl]-2-thienyl]propanenitrile] |  | B++ | 1 to 10 nM
OC1/C=C\c2c(n[nH]c2C2CC2)Nc2nc(ncc2Cl)-c2ccccc21 (stereo not drawn) [Compound 232, chloro-cyclopropyl-BLAHol] |  | B, C | > 4000 nM
CC(C)(C)c1cc(Nc2nc(-c3ccc(S(N)(=O)=O)s3)ncc2Cl)n[nH]1 [Compound 236, 5-(4-(5-tert-butyl-1H-pyrazol-3-ylamino)-5-chloropyrimidin-2-yl)thiophene-2-sulfonamide] |  | A+, A, A, A, A | 100 to 500 nM
C#Cc1cnc(-c2ccc(C(C)(C)C#N)s2)nc1Nc1cc(C2CC2)[nH]n1 [Compound 237, 2-[5-[4-[(5-cyclopropyl-1H-pyrazol-3-yl)amino]-5-ethynyl-pyrimidin-2-yl]-2-thienyl]-2-methyl-propanenitrile] |  | B++ | 1 to 10 nM
CC(C)(C#N)c1ccc(-c2ncc(Cl)c(Nc3cc(C4CC4)[nH]n3)n2)s1 [Compound 238, 2-[5-[5-chloro-4-[(5-cyclopropyl-1H-pyrazol-3-yl)amino]-pyrimidin-2-yl]-2-thienyl]-2-methyl-propanenitrile] |  | B++ | 1 to 10 nM
NS(=O)(=O)c1ccc(-c2ncc(Cl)c(Nc3cc(C4CC4)[nH]n3)n2)o1 [Compound 240, 5-(5-chloro-4-(5-cyclopropyl-1H-pyrazol-3-ylamino)pyrimidin-2-yl)furan-2-sulfonamide] |  | B++ | 10 to 50 nM
C#Cc1cnc(C2=CCN(C(=O)OC(C)(C)C)CC2)nc1Nc1cc(C2CC2)[nH]n1 [Compound 250, Tert-butyl 4-(4-(5-cyclopropyl-1H-pyrazol-3-ylamino)-5-ethynylpyrimidin-2-yl)-5,6-dihydropyridine-1(2H)-carboxylate] |  | B+ | 100 to 500 nM
NS(=O)(=O)c1ccc(-c2ncc(NC=O)c(Nc3cc(C4CC4)[nH]n3)n2)s1 [Compound 252, N-[4-[(5-cyclopropyl-1H-pyrazol-3-yl)amino]-2-(5-sulfamoyl-2-thienyl)-pyrimidin-5-yl]formamide] |  | B+ | 10 to 50 nM
N#CCC(=O)Nc1cnc(-c2ccc(S(N)(=O)=O)s2)nc1Nc1cc(C2CC2)[nH]n1 [Compound 254, 2-cyano-N-[4-[(5-cyclopropyl-1H-pyrazol-3-yl)amino]-2-(5-sulfamoyl-2-thienyl)-pyrimidin-5-yl]acetamide] |  | B, C | 100 to 500 nM
C=CCCC(=O)c1ncc(Cl)c(Nc2cc(C3CC3)[nH]n2)n1 [Compound 256, 1-[5-chloro-4-[(5-cyclopropyl-1H-pyrazol-3-yl)amino]-pyrimidin-2-yl]pent-4-en-1-one] |  | B+ | 500 to 1000 nM
CC(C)(C)NS(=O)(=O)c1ccc(-c2ncc(Cl)c(Nc3cc(C4CCN(C(=O)OCc5ccccc5)C4)n[nH]3)n2)s1 (stereo not drawn) [Compound 257, benzyl 3-[5-[[5-chloro-2-[5-(tert-butylsulfamoyl)-2-thienyl]-pyrimidin-4-yl]amino]-1H-pyrazol-3-yl]pyrrolidine-1-carboxylate] |  | B++ | > 4000 nM
CC(C)(C)OC(=O)NCc1ccc(-c2ncc(Cl)c(Nc3cc(C4CC4)n[nH]3)n2)s1 [Compound 261, tert-butyl [[5-[5-chloro-4-[(5-cyclopropyl-2H-pyrazol-3-yl)amino]-pyrimidin-2-yl]-2-thienyl]methylamino]formate] |  | B++ | 100 to 500 nM
Cc1cc(Nc2cc(C3CC3)[nH]n2)nc(-c2ccc(S(N)(=O)=O)s2)n1 [Compound 265, 5-[4-[(5-cyclopropyl-1H-pyrazol-3-yl)amino]-6-methyl-pyrimidin-2-yl]thiophene-2-sulfonamide] |  | B++ | 1 to 10 nM
Cc1nc(-c2ccc(S(N)(=O)=O)s2)nc(Nc2cc(C3CC3)[nH]n2)c1Cl [Compound 266, 5-[5-chloro-4-[(5-cyclopropyl-1H-pyrazol-3-yl)amino]-6-methyl-pyrimidin-2-yl]thiophene-2-sulfonamide] |  | A+, A, A, C | 1 to 10 nM
C#Cc1c(C)nc(-c2ccc(S(N)(=O)=O)s2)nc1Nc1cc(C2CC2)[nH]n1 [Compound 267, 5-(4-(3-cyclopropyl-1H-pyrazol-5-ylamino)-5-ethynyl-6-methylpyrimidin-2-yl)thiophene-2-sulfonamide] |  | A+, A | 1 to 10 nM
C#Cc1c(C)nc(-c2ccc(S(=O)(=O)NC(C)(C)C)s2)nc1Nc1cc(C2CC2)[nH]n1 [Compound 268, 5-[4-[(5-cyclopropyl-1H-pyrazol-3-yl)amino]-5-ethynyl-6-methyl-pyrimidin-2-yl]-N-tert-butyl-thiophene-2-sulfonamide] |  | B++ | 10 to 50 nM

Reference: US20110053916A1 (Vertex Pharmaceuticals Incorporated, priority 2009, published 2011)
